# Laboratory results taken from patent US9156831B2, “Chemical compounds” (ASTRAZENECA AB, priority 2013, dated 2015).
# What was measured:
# [1] = system: BT474 xenograft; assay: Tumour growth inhibition, BT474 xenograft model; type: in vivo, mouse
# Procedure: BT474 is an estrogen receptor positive breast tumour cell lines with elevated Her2 expression and carries a mutation in the PIK3CA gene (K111N). Female Swiss athymic nude mice (swiss nu/nu-AZUK) were transplanted subcutaneously with human epithelial breast ductal carcinoma cell line BT474c (derived in AZ from BT474-ATCC HTB-20) tumours passaged in mice. Mice were implanted with 0.36 mg 60 day oestrogen pellet (Innovative Research of America) 24 hours prior to cell implantation. 5×10^6 cells in 50% matrigel (BD Bioscience) were injected s.c. on the left flank of the animals.
# Animals were randomised into groups of 10-15 when tumours reached a volume of ˜200-300 mm^3 and treatment commenced. Animals were dosed for 3-4 weeks by peroral route, with compound in a suitable vehicle at defined doses and schedules. Tumours were measured two-three times weekly by caliper and volume of tumours calculated using elliptical formula (pi/6×width×width×length).
# [2] = system: HRA19; assay: Cell proliferation assay (MTS); type: cell-based, human
# Procedure: (§1) The sensitivity of a panel of human cancer cell lines to the effects of compounds was determined in a standard proliferation assay. Cell lines were sourced through the AstraZeneca Cell Bank.
# (§2) Cells were plated in 96 well plates at densities of 1000-6000 cells per well in RPMI media containing 10% FBS. After incubation at 37° C. for 16 hours, various concentrations of compound were added to the assay plates. After incubation for an additional 72 h, the viable cells were determined by the addition of MTS reagent (Promega #3582) to each well for 2 h. MTS is a tetrazolium salt that is bioreduced by metabolically active cells in the presence of an electron coupling reagent to formazan. The formazan product was then quantitated by absorbance at 490 nm, as an indicator of the relative number of live cells. In order to determine the GI50 (concentration at which growth of cells was inhibited by 50%) the relative number of cells present at the time of drug addition was determined by comparison with the MTS readout before the drug was added, and this value was subtracted from the 72 hr value of untreated cells as a measure of cell growth during the assay.
# [3] = system: LK2; assay: Cell proliferation assay (MTS); type: cell-based, human
# Procedure: as §1, §2
# [4] = system: L363; assay: Cell proliferation assay (MTS); type: cell-based, human
# Procedure: (§3) The sensitivity of a panel of human cancer cell lines to the effects of compounds was determined in a standard proliferation assay.
# as §2
# [5] = system: TCCSUP; assay: Cell proliferation assay (MTS); type: cell-based, human
# Procedure: as §3, §2
# [6] = system: OVCAR3; assay: Cell proliferation assay (MTS); type: cell-based, human
# Procedure: as §3, §2
# [7] = system: MOLM13; assay: Cell proliferation assay (MTS); type: cell-based, human
# Procedure: as §3, §2
# [8] = system: PAMC82; assay: Cell proliferation assay (MTS); type: cell-based, human
# Procedure: as §1
# (§4) Cells were plated in 96 well plates at densities of 1000-6000 cells per well in RPMI media containing 10% FBS. After incubation at 37° C. for 16 hours, various concentrations of compound were added to the assay plates. After incubation for an additional 72 h, the viable cells were determined by the addition of MTS reagent (Promega #3582) to each well for 2 h. […] The formazan product was then quantitated by absorbance at 490 nm, as an indicator of the relative number of live cells. In order to determine the GI50 (concentration at which growth of cells was inhibited by 50%) the relative number of cells present at the time of drug addition was determined by comparison with the MTS readout before the drug was added, and this value was subtracted from the 72 hr value of untreated cells as a measure of cell growth during the assay.
# [9] = system: HGC27; assay: Cell proliferation assay (MTS); type: cell-based, human
# Procedure: as §3, §2
# [10] = system: MKN1; assay: Cell proliferation assay (MTS); type: cell-based, human
# Procedure: as §3, §2
# [11] = system: H1975; assay: Cell proliferation assay (MTS); type: cell-based, human
# Procedure: as §1, §2
# [12] = system: HS766T; assay: Cell proliferation assay (MTS); type: cell-based, human
# Procedure: as §1, §2
# [13] = system: PC3; assay: Cell proliferation assay (MTS); type: cell-based, human
# Procedure: as §3, §2
# [14] = system: RKO; assay: Cell proliferation assay (MTS); type: cell-based, human
# Procedure: as §3, §2
# [15] = system: LUDLU1; assay: Cell proliferation assay (MTS); type: cell-based, human
# Procedure: as §3, §4
# [16] = system: OE19; assay: Cell proliferation assay (MTS); type: cell-based, human
# Procedure: as §3, §4
# [17] = system: HT29; assay: Cell proliferation assay (MTS); type: cell-based, human
# Procedure: as §3, §4
# [18] = system: H1793; assay: Cell proliferation assay (MTS); type: cell-based, human
# Procedure: as §3, §2
# [19] = system: PANC0327; assay: Cell proliferation assay (MTS); type: cell-based, human
# Procedure: as §1, §2
# [20] = system: EBC1; assay: Cell proliferation assay (MTS); type: cell-based, human
# Procedure: as §3, §4
# [21] = system: JURKAT; assay: Cell proliferation assay (MTS); type: cell-based, human
# Procedure: as §3, §4
# [22] = system: COLO205; assay: Cell proliferation assay (MTS); type: cell-based, human
# Procedure: as §3, §4
# [23] = system: MDAMB468; assay: Cell proliferation assay (MTS); type: cell-based, human
# Procedure: as §3, §4
# [24] = system: HCCC9810; assay: Cell proliferation assay (MTS); type: cell-based, human
# Procedure: as §3, §2
# [25] = system: SW620; assay: Cell proliferation assay (MTS); type: cell-based, human
# Procedure: as §3, §4
# [26] = system: MCF7MDR+; assay: Cell proliferation assay (MTS); type: cell-based, human
# Procedure: as §1, §2
# [27] = system: BEL7404; assay: Cell proliferation assay (MTS); type: cell-based, human
# Procedure: as §1, §2
# [28] = system: NAMALWA; assay: Cell proliferation assay (MTS); type: cell-based, human
# Procedure: as §3, §4
# [29] = system: H460DNP53; assay: Cell proliferation assay (MTS); type: cell-based, human
# Procedure: as §3, §2
# [30] = system: LOVO; assay: Cell proliferation assay (MTS); type: cell-based, human
# Procedure: as §3, §2
# [31] = system: HCC1395; assay: Cell proliferation assay (MTS); type: cell-based, human
# Procedure: as §3, §4
# [32] = system: ARH77; assay: Cell proliferation assay (MTS); type: cell-based, human
# Procedure: as §3, §2
# [33] = system: HCC1937; assay: Cell proliferation assay (MTS); type: cell-based, human
# Procedure: as §3, §2
# [34] = system: OCILY19; assay: Cell proliferation assay (MTS); type: cell-based, human
# Procedure: as §3, §2
# [35] = system: RAMOS; assay: Cell proliferation assay (MTS); type: cell-based, human
# Procedure: as §3, §2
# [36] = system: SC1; assay: Cell proliferation assay (MTS); type: cell-based, human
# Procedure: as §3, §4
# [37] = system: SW900; assay: Cell proliferation assay (MTS); type: cell-based, human
# Procedure: as §1, §2
# [38] = Homo sapiens, Blood/lymph, PIK3CA WT
# [39] = Homo sapiens, Breast, PIK3CA WT
structure (smiles),measurement,setting,value
"CCn1nc(C2CCN(C(=O)CCO)CC2)nc1-c1cnc(N)c(-c2nnc(C(C)(C)C)o2)n1 [Example 3, 1-(4-(5-(5-amino-6-(5-tert-butyl-1,3,4-oxadiazol-2-yl)pyrazin-2-yl)-1-ethyl-1H-1,2,4-triazol-3-yl)piperidin-1-yl)-3-hydroxypropan-1-one]",tumour growth,"[1]; Example 3 alone 25 mg/kg BID every day, FIG. 11",partially inhibited growth
same,tumour growth,"[1]; Example 3 alone 25 mg/kg BID, 2 days on/5 days off, vs vehicle, FIG. 10",partially inhibited tumour growth
same,tumour growth,"[1]; Example 3 alone 50 mg/kg BID, 2 days on/5 days off, vs vehicle, FIG. 9",partially inhibited tumour growth
same,Category,[2],Sensitive (sensitive (GI50<=1.0 μM))
same,GI50,"[2]; Homo sapiens, Rectum, PIK3CA MUT",0.393 µM
same,Category,[3],Sensitive (sensitive (GI50<=1.0 μM))
same,GI50,"[3]; Homo sapiens, LK-2, Lung, PIK3CA WT",0.588 µM
same,Category,[4],Sensitive (sensitive (GI50<=1.0 μM))
same,GI50,"[4]; Homo sapiens, L-363, Blood/lymph, PIK3CA MUT",0.681 µM
same,Category,[5],Sensitive (sensitive (GI50<=1.0 μM))
same,GI50,"[5]; Homo sapiens, TCC-SUP, Bladder, PIK3CA MUT",0.724 µM
same,Category,[6],Resistant (resistant (GI50>1.0 μM))
same,GI50,"[6]; Homo sapiens, OVCAR-3, Ovary, PIK3CA WT",1.18 µM
same,Category,[7],Resistant (resistant (GI50>1.0 μM))
same,GI50,"[7]; Homo sapiens, MOLM-13, Blood/lymph, PIK3CA WT",1.22 µM
same,Category,[8],Resistant (resistant (GI50>1.0 μM))
same,GI50,"[8]; Homo sapiens, Stomach, PIK3CA WT",1.37 µM
same,Category,[9],Resistant (resistant (GI50>1.0 μM))
same,GI50,"[9]; Homo sapiens, HGC-27, Stomach, PIK3CA MUT",1.5 µM
same,Category,[10],Resistant (resistant (GI50>1.0 μM))
same,GI50,"[10]; Homo sapiens, MKN-1, Stomach, PIK3CA MUT",1.58 µM
same,Category,[11],Resistant (resistant (GI50>1.0 μM))
same,GI50,"[11]; Homo sapiens, NCI-H1975, Lung, PIK3CA MUT",2.26 µM
same,Category,[12],Resistant (resistant (GI50>1.0 μM))
same,GI50,"[12]; Homo sapiens, Pancreas, PIK3CA WT",3.47 µM
same,Category,[13],Resistant (resistant (GI50>1.0 μM))
same,GI50,"[13]; Homo sapiens, PC-3, Prostate, PIK3CA WT",3.83 µM
same,Category,[14],Resistant (resistant (GI50>1.0 μM))
same,GI50,"[14]; Homo sapiens, Colon, PIK3CA MUT",4.32 µM
same,Category,[15],Resistant (resistant (GI50>1.0 μM))
same,GI50,"[15]; Homo sapiens, LUDLU-1, Lung, PIK3CA WT",4.65 µM
same,Category,[16],Resistant (resistant (GI50>1.0 μM))
same,GI50,"[16]; Homo sapiens, Esophagus, PIK3CA WT",5.13 µM
same,Category,[17],Resistant (resistant (GI50>1.0 μM))
same,GI50,"[17]; Homo sapiens, HT-29, Colon, PIK3CA MUT",5.48 µM
same,Category,[18],Resistant (resistant (GI50>1.0 μM))
same,GI50,"[18]; Homo sapiens, NCI-H1793, Lung, PIK3CA WT",7.33 µM
same,Category,[19],Resistant (resistant (GI50>1.0 μM))
same,GI50,"[19]; Homo sapiens, PANC-03-27, Pancreas, PIK3CA WT",8.03 µM
same,Category,[20],Resistant (resistant (GI50>1.0 μM))
same,GI50,"[20]; Homo sapiens, EBC-1, Lung, PIK3CA WT",8.57 µM
same,Category,[21],Resistant (resistant (GI50>1.0 μM))
same,GI50,[21]; [38],8.69 µM
same,Category,[22],Resistant (resistant (GI50>1.0 μM))
same,GI50,"[22]; Homo sapiens, COLO 205, Colon, PIK3CA WT",8.93 µM
same,Category,[23],Resistant (resistant (GI50>1.0 μM))
same,GI50,"[23]; Homo sapiens, MDA-MB-468, Breast, PIK3CA WT",9.33 µM
same,Category,[24],Resistant (resistant (GI50>1.0 μM))
same,GI50,"[24]; Homo sapiens, Bile duct, PIK3CA WT",10 µM
same,Category,[25],Resistant (resistant (GI50>1.0 μM))
same,GI50,"[25]; Homo sapiens, SW-620, Colon, PIK3CA WT",13.4 µM
same,Category,[26],Resistant (resistant (GI50>1.0 μM))
same,GI50,[26]; [39],14.5 µM
same,Category,[27],Resistant (resistant (GI50>1.0 μM))
same,GI50,"[27]; Homo sapiens, BEL-7404, Liver, PIK3CA WT",14.9 µM
same,Category,[28],Resistant (resistant (GI50>1.0 μM))
same,GI50,[28]; [38],17.6 µM
same,Category,[29],Resistant (resistant (GI50>1.0 μM))
same,GI50,"[29]; Homo sapiens, Lung, PIK3CA WT",18 µM
same,Category,[30],Resistant (resistant (GI50>1.0 μM))
same,GI50,"[30]; Homo sapiens, Colon, PIK3CA WT",18.6 µM
same,Category,[31],Resistant (resistant (GI50>1.0 μM))
same,GI50,[31]; [39],21.8 µM
same,Category,[32],Resistant (resistant (GI50>1.0 μM))
same,GI50,"[32]; Homo sapiens, ARH-77, Blood/lymph, PIK3CA WT",30 µM
same,Category,[33],Resistant (resistant (GI50>1.0 μM))
same,GI50,[33]; [39],30 µM
same,Category,[34],Resistant (resistant (GI50>1.0 μM))
same,GI50,"[34]; Homo sapiens, OCI-LY19, Blood/lymph, PIK3CA WT",30 µM
same,Category,[35],Resistant (resistant (GI50>1.0 μM))
same,GI50,[35]; [38],30 µM
same,Category,[36],Resistant (resistant (GI50>1.0 μM))
same,GI50,"[36]; Homo sapiens, SC-1, Blood/lymph, PIK3CA WT",30 µM
same,Category,[37],Resistant (resistant (GI50>1.0 μM))
same,GI50,"[37]; Homo sapiens, Lung, PIK3CA WT",30 µM
